In experiment [1] the test system is Strenotrophomonas maltophilia ATCC 13637. Nature of the experiment: MIC determination by microbroth dilution. The class given is cell-based. Background: Broth dilution looks for growth in wells or tubes with falling amounts of substance.
Experiment [2] deals with Proteus vulgaris ATCC 33420. In words: MIC determination by microbroth dilution. Format: cell-based. The note with it: ATCC33420.
The next experiment has as its system M. tuberculosis H37Rv. In words: MIC determination by microbroth dilution, anti-tuberculosis activity. Format: cell-based, Mycobacterium tuberculosis. As to conditions: Mycobacterium tuberculosis, H37RV, 168 h; read-out: MIC.
Another experiment relates to E. faecalis ATCC 33186. Nature of the experiment: MIC determination by microbroth dilution. The class given is cell-based, Enterococcus faecalis. The note with it: Enterococcus faecalis, ATCC33186.
Experiment [3] deals with S. aureus 8325 or strain ATCC 29213. Nature of the experiment: MIC determination by microbroth dilution. Format: cell-based, Staphylococcus aureus. The note with it: Staphylococcus aureus, ATCC29213; S. aureus 8325 or strain ATCC 29213 (for 1471-1544).
For experiment [4], the system named is Proteus mirabilis ATCC 25933. Nature of the experiment: MIC determination by microbroth dilution. The class given is cell-based. The note with it: ATCC25933.
For experiment [5], the system named is Klebsiella pneumoniae ATCC 33495. Nature of the experiment: MIC determination by microbroth dilution. The class given is cell-based. The note with it: ATCC33495.
A further experiment has as its system E. coli ribosomes. Format: biochemical. As to conditions: for IC50, 50% inhibition of luciferase biosynthesis in S30 assay: E. coli S30 transcription/translation assay; for relative inhibitory activity on luciferase production: tested at 0.66 and 6.6 μM, FIG. 5.
The next experiment concerns B. anthracis Sterne 34F2. In words: microbe, parasite or virus in culture. The note with it: Bacillus anthracis, STERNE34F2, read-out: MIC B. anthracis 34F2. Format: cell-based, Bacillus anthracis.
The test system of a further experiment is P. aeruginosa PAO1. In words: MIC determination by microbroth dilution. As to conditions: Pseudomonas aeruginosa. Format: cell-based, Pseudomonas aeruginosa.
For experiment [6], the system named is Burkholderia cepacia ATCC 25416. Nature of the experiment: MIC determination by microbroth dilution. As to conditions: ATCC25416, read-out: MIC B. cepcia. Format: cell-based.
Experiment [7] deals with Strep. pneumoniae DAW27 or strain R6. In words: MIC determination by microbroth dilution. Format: cell-based, Streptococcus pneumoniae. As to conditions: Streptococcus pneumoniae; Strep. pneumoniae DAW27 or strain R6 (for 1443-1544); read-out: MIC S. pneumoniae.
The test system of the next experiment is E. coli K12. Nature of the experiment: MIC determination by microbroth dilution. The class given is cell-based, Escherichia coli. As to conditions: Escherichia coli, K12.
For experiment [8], the system named is Acinetobacter baumannii ATCC 19606. Nature of the experiment: MIC determination by microbroth dilution. Format: cell-based. The note with it: ATCC19606.
The next experiment deals with E. coli K12 ΔtolC. In words: microbe, parasite or virus in culture. The class given is cell-based. As to conditions: Escherichia coli, read-out: MIC E. coli K12 ΔtolC.
Experiment [9] has as its system Strep. pyogenes ATCC 700294. In words: MIC determination by microbroth dilution. Format: cell-based, Streptococcus pyogenes. The note with it: Streptococcus pyogenes, ATCC700294, read-out: MIC S. pyogenes.

Consider 4 compounds from US9284325B2, “Spectinamides as anti-tuberculosis agents” (UNIVERSITY OF TENNESSEE RESEARCH FOUNDATION, priority 2009, dated 2016).

Counter-ions that a name gives are not always drawn.

Regarding `CN[C@@H]1[C@H](O)[C@H](NC)C2O[C@]3(O)C(OC2[C@H]1O)O[C@H](C)C[C@H]3NC(=O)c1ccccn1` (stereo partly drawn) [Compound 1370, 3′-Dihydro-3′-deoxy-4(R)-pyridin-2-carboxylicamino spectinomycin Dihydrochloride], the MIC in experiment [1] was over 200 µg/mL; in experiment [2] it was over 200 µg/mL; with M. tuberculosis H37Rv, 100 µg/mL; with E. faecalis ATCC 33186, over 200 µg/mL; in [3], over 200 µg/mL; in [4] it was over 200 µg/mL. Besides, the MIC in [5] is over 200 µg/mL; in the experiment with B. anthracis Sterne 34F2, 50 µg/mL; with P. aeruginosa PAO1, over 200 µg/mL; in experiment [6] it was over 200 µg/mL; in [7], over 200 µg/mL; in the experiment on E. coli K12, 200 µg/mL. The MIC in [8] was over 200 µg/mL; in the experiment with E. coli K12 ΔtolC, 100 µg/mL; in experiment [9] it was over 200 µg/mL. For the same compound, in the experiment with E. coli ribosomes, the “IC50, 50% inhibition of luciferase biosynthesis in S30 assay” value stood at 0.89 µg/mL. The “relative inhibitory activity on luciferase production” value (“relative inhibitory activity” below) in the experiment on E. coli ribosomes is on record as “less active than 1329”.
Take `CN[C@@H]1[C@H](O)[C@H](NC)C2O[C@]3(O)C(OC2[C@H]1O)O[C@H](C)C[C@H]3NC(=O)Cc1csc(N)n1` (stereo partly drawn) [Compound 1444, 3′-Dihydro-3′-deoxy-4(R)-(2-aminothiazol-4-yl)acetylamino spectinomycin trihydrobromide]: the MIC in experiment [1] is over 200 µg/mL; in [2], over 200 µg/mL; in the experiment with M. tuberculosis H37Rv, 3.1 µg/mL; against E. faecalis ATCC 33186 it was 50 µg/mL; in experiment [3], 100 µg/mL; in experiment [4], over 200 µg/mL. In addition, the MIC in [5] was 100 µg/mL; with B. anthracis Sterne 34F2, 6.25 µg/mL; in the experiment with P. aeruginosa PAO1, over 200 µg/mL; in experiment [6] it was over 200 µg/mL; in experiment [7], 25 µg/mL; with E. coli K12, 100 µg/mL. Besides, the figures for the MIC (in experiment [8]; in the experiment on E. coli K12 ΔtolC; in experiment [9]) were over 200 µg/mL, 200 µg/mL and 25 µg/mL, respectively. Further, in the experiment on E. coli ribosomes, the “IC50, 50% inhibition of luciferase biosynthesis in S30 assay” value was 0.12 µg/mL.
On to `CN[C@@H]1[C@H](O)[C@H](NC)C2O[C@]3(O)C(OC2[C@H]1O)O[C@H](C)C[C@H]3NCc1ccc(C)cc1` (stereo partly drawn) [Compound 1425, 3′-Dihydro-3′-deoxy-4(R)-(4-methyl)benzylamino spectinomycin Trihydrochloride], for which the MIC was over 200 µg/mL in experiment [1]; over 200 µg/mL in experiment [2]; 1000 µg/mL in the experiment on M. tuberculosis H37Rv; 100 µg/mL in the experiment with E. faecalis ATCC 33186; 50 µg/mL in experiment [3]; over 200 µg/mL in [4]. Besides, the MIC in [5] was over 200 µg/mL; with B. anthracis Sterne 34F2 it was 100 µg/mL; against P. aeruginosa PAO1, 200 µg/mL; in experiment [6], over 200 µg/mL; in [7] it was 100 µg/mL; in the experiment with E. coli K12 it was 200 µg/mL. Besides, the MIC was over 200 µg/mL in experiment [8], 100 µg/mL in the experiment on E. coli K12 ΔtolC and 12.5 µg/mL in experiment [9]. In the experiment with E. coli ribosomes, the “relative inhibitory activity” value was “inhibited well”.
On to `CN[C@@H]1[C@H](O)[C@H](NC)C2O[C@]3(O)C(OC2[C@H]1O)O[C@H](C)C[C@H]3NCCC(C)C` (stereo partly drawn) [Compound 1420, 3′-Dihydro-3′-deoxy-4(R)-(3-methyl)butylamino spectinomycin Trihydrochloride], for which the MIC in experiment [1] was 200 µg/mL; in experiment [2], over 200 µg/mL; with M. tuberculosis H37Rv, 200 µg/mL; against E. faecalis ATCC 33186, 200 µg/mL; in [3] it was 100 µg/mL; in experiment [4], over 200 µg/mL. Also, the MIC is over 200 µg/mL in [5]; 50 µg/mL with B. anthracis Sterne 34F2; 200 µg/mL against P. aeruginosa PAO1; over 200 µg/mL in experiment [6]; 100 µg/mL in experiment [7]; 100 µg/mL against E. coli K12. In addition, the results for the MIC (in experiment [8]; with E. coli K12 ΔtolC; in experiment [9]) were over 200 µg/mL, 25 µg/mL and 200 µg/mL, respectively. Also, the “relative inhibitory activity” value with E. coli ribosomes was “inhibited well”.
